Experimental data reported in patent US10584117B2, “1,3,4-oxadiazole amide derivative compound as histone deacetylase 6 inhibitor, and pharmaceutical composition containing same” (Chong Kun Dang Pharmaceutical Corp., priority 2015, dated 2020).

Molecular target: T1, human recombinant HDAC6 (Homo sapiens, UniProt Q9UBN7)
T1 construct: purchased Calbiochem 382180
T1 sequence (Q9UBN7 1-1215): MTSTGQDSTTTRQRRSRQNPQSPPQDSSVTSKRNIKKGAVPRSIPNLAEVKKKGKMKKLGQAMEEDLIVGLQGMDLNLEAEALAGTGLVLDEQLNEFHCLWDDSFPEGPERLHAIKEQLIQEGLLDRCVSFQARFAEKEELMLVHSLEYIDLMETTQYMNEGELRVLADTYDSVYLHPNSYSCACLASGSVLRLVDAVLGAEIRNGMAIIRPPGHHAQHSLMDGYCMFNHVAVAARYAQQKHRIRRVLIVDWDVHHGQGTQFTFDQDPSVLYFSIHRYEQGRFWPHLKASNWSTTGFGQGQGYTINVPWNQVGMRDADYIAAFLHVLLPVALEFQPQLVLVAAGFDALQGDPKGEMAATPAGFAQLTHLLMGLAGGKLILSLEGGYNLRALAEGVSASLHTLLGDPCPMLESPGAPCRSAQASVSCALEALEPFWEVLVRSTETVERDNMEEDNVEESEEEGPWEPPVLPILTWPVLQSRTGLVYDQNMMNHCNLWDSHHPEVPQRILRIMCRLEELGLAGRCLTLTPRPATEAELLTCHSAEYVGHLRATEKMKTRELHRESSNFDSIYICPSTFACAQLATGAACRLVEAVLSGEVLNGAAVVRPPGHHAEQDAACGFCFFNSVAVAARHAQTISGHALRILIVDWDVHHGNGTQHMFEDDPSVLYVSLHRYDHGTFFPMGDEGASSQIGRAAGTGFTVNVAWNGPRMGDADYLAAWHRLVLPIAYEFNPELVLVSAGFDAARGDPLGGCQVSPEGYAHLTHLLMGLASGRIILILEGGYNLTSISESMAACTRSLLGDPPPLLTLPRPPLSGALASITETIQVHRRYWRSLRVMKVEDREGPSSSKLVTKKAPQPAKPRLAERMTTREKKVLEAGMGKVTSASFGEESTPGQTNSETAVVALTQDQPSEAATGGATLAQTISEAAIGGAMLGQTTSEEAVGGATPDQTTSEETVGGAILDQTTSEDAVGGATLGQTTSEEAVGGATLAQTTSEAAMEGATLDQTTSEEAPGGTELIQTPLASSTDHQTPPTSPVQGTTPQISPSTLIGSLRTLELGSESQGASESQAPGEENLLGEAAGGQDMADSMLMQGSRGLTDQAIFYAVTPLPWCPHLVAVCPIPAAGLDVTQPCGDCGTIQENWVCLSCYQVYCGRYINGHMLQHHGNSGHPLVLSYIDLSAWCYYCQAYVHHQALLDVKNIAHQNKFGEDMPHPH
Test: HDAC enzyme activity inhibition assay (HDAC6, fluorimetric kit)
Type: biochemical
Conditions: for HDAC6 selectivity (fold): HDAC6 versus HDAC1; for IC50: same protocol as the HDAC1 test
Outline: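 Fluorimetric kit assay: human recombinant HDAC1 or HDAC6 (0.3 μg) reacted with 10 μM Fluor de Lys-SIRT1 substrate and 5-fold serially diluted compound for 60 minutes at 30° C, followed by 30 minutes of developer. Fluorescence was read at Ex 360/Em 460, and IC50 values were calculated from it.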

HDAC6 selectivity (fold) | IC50 | Structure (SMILES)
1961 fold | 51 nM | CC(=O)N1CC(C(=O)N(Cc2ccc(-c3nnc(C(F)F)o3)cc2F)c2cccc(F)c2)C1 [Compound 11330, 1-acetyl-N-(4-(5-(difluoromethyl)-1,3,4-oxadiazol-2-yl)-2-fluorobenzyl)-N-(3-fluorophenyl)azetidine-3-carboxamide]
2041 fold | 49 nM | CC(=O)N(Cc1ccc(-c2nnc(C(F)F)o2)cc1F)c1cccc(F)c1 [Compound 11339, N-(4-(5-(difluoromethyl)-1,3,4-oxadiazol-2-yl)-2-fluorobenzyl)-N-(3-fluorophenyl)acetamide]
2941 fold | 34 nM | O=C(c1ccncc1)N(Cc1ccc(-c2nnc(C(F)F)o2)cn1)c1ccccc1 [Compound 11341, N-((5-(5-(difluoromethyl)-1,3,4-oxadiazol-2-yl)pyridin-2-yl)methyl)-N-phenylisonicotinamide]
1961 fold | 51 nM | CCC(=O)N(Cc1ccc(-c2nnc(C(F)F)o2)cc1F)c1cccc(F)c1 [Compound 11356, N-(4-(5-(difluoromethyl)-1,3,4-oxadiazol-2-yl)-2-fluorobenzyl)-N-(3-fluorophenyl)propionamide]
1149 fold | 87 nM | CCCC(=O)N(Cc1ccc(-c2nnc(C(F)F)o2)cc1F)c1cccc(F)c1 [Compound 11357, N-(4-(5-(difluoromethyl)-1,3,4-oxadiazol-2-yl)-2-fluorobenzyl)-N-(3-fluorophenyl)butyramide]
847 fold | 118 nM | CC(C)CC(=O)N(Cc1ccc(-c2nnc(C(F)F)o2)cc1F)c1cccc(F)c1 [Compound 11358, N-(4-(5-(difluoromethyl)-1,3,4-oxadiazol-2-yl)-2-fluorobenzyl)-N-(3-fluorophenyl)-3-methylbutanamide]
2941 fold | 34 nM | O=C(c1ccncc1)N(Cc1ccc(-c2nnc(C(F)(F)F)o2)cn1)c1cccc(F)c1 [Compound 11359, N-(3-fluorophenyl)-N-((5-(5-(trifluoromethyl)-1,3,4-oxadiazol-2-yl)pyridin-2-yl)methyl)isonicotinamide]
3125 fold | 32 nM | O=C(c1ccncc1)N(Cc1ccc(-c2nnc(C(F)F)o2)cn1)c1cccc(F)c1 [Compound 11360, N-((5-(5-(difluoromethyl)-1,3,4-oxadiazol-2-yl)pyridin-2-yl)methyl)-N-(3-fluorophenyl)isonicotinamide]
4167 fold | 24 nM | O=C(c1cccnc1)N(Cc1ccc(-c2nnc(C(F)F)o2)cn1)c1cccc(F)c1 [Compound 11376, N-((5-(5-(difluoromethyl)-1,3,4-oxadiazol-2-yl)pyridin-2-yl)methyl)-N-(3-fluorophenyl)nicotinamide]
2500 fold | 40 nM | CN1CCC(C(=O)N(Cc2ccc(-c3nnc(C(F)F)o3)cn2)c2ccccc2)CC1 [Compound 11414, N-((5-(5-(difluoromethyl)-1,3,4-oxadiazol-2-yl)pyridin-2-yl)methyl)-1-methyl-N-phenylpipetidine-4-carboxamide]
2500 fold | 40 nM | CN1CCC(C(=O)N(Cc2ccc(-c3nnc(C(F)F)o3)cn2)c2cccc(F)c2)CC1 [Compound 11418, N-((5-(5-(difluoromethyl)-1,3,4-oxadiazol-2-yl)pyridin-2-yl)methyl)-N-(3-fluorophenyl)-1-methylpiperidine-4-carboxamide]
3333 fold | 30 nM | CCN1CCC(C(=O)N(Cc2ccc(-c3nnc(C(F)F)o3)cn2)c2cccc(F)c2)CC1 [Compound 11419, N-((5-(5-(difluoromethyl)-1,3,4-oxadiazol-2-yl)pyridin-2-yl)methyl)-1-ethyl-N-(3-fluorophenyl)piperidine-4-carboxamide]
1695 fold | 59 nM | O=C(c1ccncc1)N(Cc1ccc(-c2nnc(C(F)(F)F)o2)cn1)c1ccccc1 [Compound 11584, N-phenyl-N-((5-(5-(trifluoromethyl)-1,3,4-oxadiazol-2-yl)pyridin-2-yl)methyl)isonicotinamide]

Continued, compound first:

Structure (SMILES) | HDAC6 selectivity (fold) | IC50
CCC(=O)N1CC(C(=O)N(Cc2ccc(-c3nnc(C(F)F)o3)cc2F)c2cccc(F)c2)C1 [Compound 11331, N-(4-(5-(difluoromethyl)-1,3,4-oxadiazol-2-yl)-2-fluorobenzyl)-N-(3-fluorophenyl)-1-propionylazetidine-3-carboxamide] | 1786 fold | 56 nM
CC(C)C(=O)N1CC(C(=O)N(Cc2ccc(-c3nnc(C(F)F)o3)cc2F)c2cccc(F)c2)C1 [Compound 11332, N-(4-(5-(difluoromethyl)-1,3,4-oxadiazol-2-yl)-2-fluorobenzyl)-N-(3-fluorophenyl)-1-isobutyrylazetidine-3-carboxamide] | 2326 fold | 43 nM
CS(=O)(=O)N1CC(C(=O)N(Cc2ccc(-c3nnc(C(F)F)o3)cc2F)c2cccc(F)c2)C1 [Compound 11333, N-(4-(5-(difluoromethyl)-1,3,4-oxadiazol-2-yl)-2-fluorobenzyl)-N-(3-fluorophenyl)-1-(methylsulfonyl)azetidine-3-carboxamide] | 3448 fold | 29 nM
CCS(=O)(=O)N1CC(C(=O)N(Cc2ccc(-c3nnc(C(F)F)o3)cc2F)c2cccc(F)c2)C1 [Compound 11334, N-(4-(5-(difluoromethyl)-1,3,4-oxadiazol-2-yl)-2-fluorobenzyl)-1-(ethylsulfonyl)-N-(3-fluorophenyl)azetidine-3-carboxamide] | 2632 fold | 38 nM
CC(=O)N(Cc1ccc(-c2nnc(C(F)(F)F)o2)cc1F)c1cccc(F)c1 [Compound 11340, N-(2-fluoro-4-(5-(trifluoromethyl)-1,3,4-oxadiazol-2-yl)benzyl)-N-(3-fluorophenyl)acetamide] | 1087 fold | 92 nM
O=C(CN1CCCC1)N(Cc1ccc(-c2nnc(C(F)F)o2)cc1F)c1ccc(F)c(Cl)c1 [Compound 11534, N-(3-chloro-4-fluorophenyl)-N-(4-(5-(difluoromethyl)-1,3,4-oxadiazol-2-yl)-2-fluorobenzyl)-2-(pyrolidin-1-yl)acetamide] | 1370 fold | 73 nM
O=C(CN1CCOCC1)N(Cc1ccc(-c2nnc(C(F)F)o2)cc1F)c1ccc(F)c(Cl)c1 [Compound 11535, N-(3-chloro-4-fluorophenyl)-N-(4-(5-(difluoromethyl)-1,3,4-oxadiazol-2-yl)-2-fluorobenzyl)-2-morpholinoacetamide] | 1163 fold | 86 nM
O=C(CN1CC[C@H](O)C1)N(Cc1ccc(-c2nnc(C(F)F)o2)cc1F)c1ccc(F)c(Cl)c1 [Compound 11536, (S)-N-(3-chloro-4-fluorophenyl)-N-(4-(5-(difluoromethyl)-1,3,4-oxadiazol-2-yl)-2-fluorobenzyl)-2-(3-hydroxypyrrolidin-1-yl)acetamide] | 1042 fold | 96 nM
O=C(CN1CCC[C@@H]1CO)N(Cc1ccc(-c2nnc(C(F)F)o2)cc1F)c1ccc(F)c(Cl)c1 [Compound 11537, (R)-N-(3-chloro-4-fluorophenyl)-N-(4-(5-(difluoromethyl)-1,3,4-oxadiazol-2-yl)-2-fluorobenzyl)-2-(2-(hydroxymethyl)pyrrolidin-1-yl)acetamide] | 1429 fold | 70 nM
NC(=O)[C@@H]1CCCN1CC(=O)N(Cc1ccc(-c2nnc(C(F)F)o2)cc1F)c1ccc(F)c(Cl)c1 [Compound 11538, (S)-1-(2-((3-chloro-4-fluorophenyl) (4-(5-(difluoromethyl)-1,3,4-oxadiazol-2-yl)-2-fluorobenzyl)amino)-2-oxoethyl)pyrrolidine-2-carboxamide] | 1587 fold | 63 nM
